# Assay results reported in DBAASP.
# Legend:
# Experiment in all cases: ≥ marks a high value that may be exact or a test limit, other limits are often not marked, values filed in µg/mL are converted to µM
# Escherichia coli K-12 = tested on: Escherichia coli K-12
# [1] = tested on: Staphylococcus aureus USA 300
# [2] = tested on: Pseudomonas aeruginosa PAO1
# [3] = tested on: Streptococcus pyogenes M1T1 5448
# Escherichia coli BL21 = tested on: Escherichia coli BL21
# [4] = tested on: Staphylococcus aureus NCTC 10788
# [5] = tested on: Escherichia coli NCTC 10418
# [6] = tested on: Pseudomonas aeruginosa ATCC 27853
# [7] = tested on: Staphylococcus aureus NCTC 12493
# [8] = tested on: Staphylococcus aureus ATCC 43300
# [9] = tested on: Candida albicans NCYC 1467
# [10] = tested on: Escherichia coli ATCC 25922
# [11] = tested on: Escherichia coli NEB5alpha
# [12] = tested on: Bacillus subtilis ATCC 6051
# [13] = tested on: Staphylococcus aureus NCTC 8325-4
# Klebsiella pneumoniae = tested on: Klebsiella pneumoniae
smiles,measurement,setting,value
CC[C@H](C)[C@H](NC(=O)[C@H](Cc1cnc[nH]1)NC(=O)[C@H](CCCCN)NC(=O)[C@@H](NC(=O)[C@@H](NC(=O)[C@H](CC(=O)O)NC(=O)[C@H](Cc1ccccc1)NC(=O)[C@H](Cc1c[nH]c2ccccc12)NC(=O)CN)C(C)C)C(C)C)C(=O)N[C@@H](C)C(=O)N[C@@H](CCCCN)C(=O)N[C@@H](CCCNC(=N)N)C(=O)N[C@@H](Cc1ccccc1)C(N)=O [GWFDVVKHIAKRF],MIC,Escherichia coli K-12,12.5 µM
same,MIC,[1],≥ 50 µM
CC[C@H](C)[C@H](NC(=O)[C@H](CCCN=C(N)N)NC(=O)[C@H](C)NC(=O)[C@H](CCCCN)NC(=O)[C@H](CCCCN)NC(=O)CNC(=O)[C@H](Cc1ccccc1)NC(=O)[C@H](CCCCN)NC(=O)[C@H](CCCN=C(N)N)NC(=O)[C@H](CC(C)C)NC(=O)[C@H](CCC(=O)O)NC(=O)[C@H](CCC(=O)O)NC(=O)[C@H](CCCCN)NC(=O)[C@H](CC(C)C)NC(=O)[C@H](Cc1ccc(O)cc1)NC(=O)[C@H](CC(C)C)NC(=O)[C@@H](NC(=O)[C@H](CC(C)C)NC(=O)[C@H](C)NC(=O)[C@H](CCC(N)=O)NC(=O)[C@H](CCCN=C(N)N)NC(=O)CNC(=O)[C@@H](N)Cc1c[nH]c2ccccc12)[C@@H](C)O)C(=O)N[C@@H](C)C(=O)N[C@@H](Cc1c[nH]c2ccccc12)C(=O)O [WGRQALTLYLKEELRKFGKKARIAW],MIC,[2],> 128 µM
same,MIC,[3],0.25 µM
same,MIC,Escherichia coli BL21,16 µM
CSCC[C@H](NC(=O)[C@H](CC(=O)O)NC(=O)[C@@H](NC(=O)[C@@H](NC(=O)[C@H](C)NC(=O)[C@H](CC(N)=O)NC(=O)[C@H](CC(C)C)NC(=O)[C@@H](NC(=O)[C@H](C)NC(=O)[C@H](CCCCN)NC(=O)CNC(=O)[C@H](C)NC(=O)[C@H](C)NC(=O)[C@H](CCCCN)NC(=O)CNC(=O)[C@@H](NC(=O)[C@H](CC(N)=O)NC(=O)[C@H](CCCCN)NC(=O)[C@H](CC(C)C)NC(=O)[C@H](CC(C)C)NC(=O)[C@@H](NC(=O)[C@H](CCCCN)NC(=O)[C@H](Cc1c[nH]c2ccccc12)NC(=O)[C@H](CC(C)C)NC(=O)[C@H](C)N)[C@@H](C)O)C(C)C)C(C)C)C(C)C)[C@@H](C)O)C(=O)N[C@H](C(=O)N[C@@H](CC(N)=O)C(=O)N[C@@H](CCC(N)=O)C(N)=O)C(C)C [ALWKTLLKNVGKAAGKAVLNAVTDMVNQ],MIC,[4],2.71 µM
same,MIC,[5],2.71 µM
same,MIC,[6],5.42 µM
same,MIC,[7],5.42 µM
same,MIC,[8],2.71 µM
same,MIC,[9],5.42 µM
CC[C@H](C)[C@H](NC(=O)[C@H](CCC(=O)O)NC(=O)[C@H](CCCN=C(N)N)NC(=O)[C@H](CCCN=C(N)N)NC(=O)[C@H](CC(C)C)NC(=O)[C@H](Cc1ccc(O)cc1)NC(=O)[C@H](C)NC(=O)[C@H](CCCCN)NC(=O)[C@@H](NC(=O)[C@@H](NC(=O)[C@H](CCC(N)=O)NC(=O)[C@H](CCCN=C(N)N)NC(=O)CNC(=O)[C@H](C)N)[C@@H](C)O)[C@@H](C)CC)C(=O)N[C@@H](CCCN=C(N)N)C(=O)N[C@@H](CCCCN)C(=O)N[C@@H](CCCN=C(N)N)C(=O)NCC(=O)N[C@@H](CCCN=C(N)N)C(=O)N[C@@H](CCCCN)C(=O)N[C@@H](C)C(=O)N[C@H](C(=O)N[C@H](C(=O)N[C@@H](C)C(=O)N[C@@H](Cc1c[nH]c2ccccc12)C(=O)O)[C@@H](C)CC)C(C)C [AGRQTIKAYLRREIRKRGRKAVIAW],MIC,[2],16 µM
same,MIC,[3],8 µM
same,MIC,Escherichia coli BL21,8 µM
CC[C@H](C)[C@H](NC(=O)[C@H](CCCCN)NC(=O)[C@H](CCCCN)NC(=O)[C@H](CC(C)C)NC(=O)[C@H](C)NC(=O)CNC(=O)[C@@H](NC(=O)[C@H](C)NC(=O)[C@H](CCCCN)NC(=O)[C@@H]1CCCN1C(=O)[C@H](CC(C)C)NC(=O)[C@H](CC(C)C)NC(=O)[C@H](CCCCN)NC(=O)[C@H](Cc1ccccc1)NC(=O)[C@H](Cc1ccccc1)NC(=O)[C@@H](N)Cc1ccccc1)[C@@H](C)CC)C(=O)O [FFFKLLPKAIGALKKI],MIC,Escherichia coli K-12,≥ 128 µM
same,MIC,[6],64 µM
CC[C@H](C)[C@H](NC(=O)[C@H](Cc1c[nH]c2ccccc12)NC(=O)[C@@H]1CCCN1C(=O)[C@H](CCCCN)NC(=O)[C@H](CCSC)NC(=O)[C@H](C)NC(=O)[C@H](CCCCN)NC(=O)[C@H](CCC(N)=O)NC(=O)[C@H](Cc1cnc[nH]1)NC(=O)[C@H](CCC(N)=O)NC(=O)[C@H](Cc1ccc(O)cc1)NC(=O)[C@@H](NC(=O)[C@@H](N)[C@@H](C)O)C(C)C)C(=O)N[C@@H](CCC(N)=O)C(=O)N1CCC[C@H]1C(=O)N[C@@H](CCCCN)C(=O)N[C@H](C(=O)N[C@@H](CCCCN)C(=O)N[C@H](C(=O)N[C@H](C(=O)N1CCC[C@H]1C(=O)N[C@@H](Cc1ccc(O)cc1)C(=O)N[C@H](C(=O)N[C@@H](CCCN=C(N)N)C(=O)N[C@@H](Cc1ccc(O)cc1)C(=O)N[C@@H](CC(C)C)C(=O)O)C(C)C)[C@@H](C)CC)C(C)C)[C@@H](C)O [TVYQHQKAMKPWIQPKTKVIPYVRYL],MIC,[10],171 µM
same,MIC,[11],21.4 µM
same,MIC,[12],2.67 µM
CC[C@H](C)[C@H](NC(=O)[C@H](Cc1ccccc1)NC(=O)[C@H](C)NC(=O)[C@H](CCCCN)NC(=O)[C@H](CCCCN)NC(=O)CNC(=O)[C@H](CCCN=C(N)N)NC(=O)[C@H](CCCCN)NC(=O)[C@H](CCCN=C(N)N)NC(=O)[C@H](CC(C)C)NC(=O)[C@H](Cc1ccc(O)cc1)NC(=O)[C@H](CCC(=O)O)NC(=O)[C@H](CCCCN)NC(=O)[C@H](CC(C)C)NC(=O)[C@H](CCC(=O)O)NC(=O)[C@H](CC(C)C)NC(=O)[C@@H](NC(=O)[C@H](CC(C)C)NC(=O)[C@H](CCCCN)NC(=O)[C@H](CCC(N)=O)NC(=O)[C@H](CCCN=C(N)N)NC(=O)CNC(=O)[C@H](C)N)[C@@H](C)O)C(=O)N[C@@H](C)C(=O)N[C@@H](Cc1c[nH]c2ccccc12)C(=O)O [AGRQKLTLELKEYLRKRGKKAFIAW],MIC,[2],128 µM
same,MIC,[3],4 µM
same,MIC,Escherichia coli BL21,16 µM
CC(C)C[C@H](NC(=O)[C@H](CCCN=C(N)N)NC(=O)[C@H](CC(N)=O)NC(=O)[C@H](CC(C)C)NC(=O)[C@@H](N)CCCCN)C(=O)N[C@@H](CCCCN)C(=O)N[C@@H](CCC(=O)O)C(=O)N[C@@H](CCCCN)C(=O)N[C@@H](CC(N)=O)C(=O)N[C@@H](CCCCN)C(=O)N[C@@H](C)C(=O)N[C@@H](CCCCN)C(=O)N[C@@H](CC(N)=O)C(=O)N[C@@H](CO)C(=O)N[C@@H](CCCCN)C(=O)N[C@@H](CCC(=O)O)C(=O)N[C@@H](CC(N)=O)C(=O)N[C@@H](CC(N)=O)C(=O)O [KLNRLKEKNKAKNSKENN],MIC,[4],≥ 237 µM
same,MIC,[5],≥ 237 µM
same,MIC,[6],> 237 µM
same,MIC,[9],≥ 237 µM
CC[C@H](C)[C@H](NC(=O)[C@H](CCCN=C(N)N)NC(=O)CNC(=O)[C@@H](NC(=O)[C@H](CCCCN)NC(=O)[C@H](CCCN=C(N)N)NC(=O)[C@@H](NC(=O)[C@H](Cc1ccc(O)cc1)NC(=O)[C@H](CCCN=C(N)N)NC(=O)[C@H](CCCN=C(N)N)NC(=O)[C@H](CC(C)C)NC(=O)[C@H](CCC(=O)O)NC(=O)[C@H](CCCCN)NC(=O)[C@H](C)NC(=O)[C@@H](NC(=O)[C@H](CCCN=C(N)N)NC(=O)[C@H](CC(N)=O)NC(=O)[C@@H](NC(=O)[C@H](CCCCN)NC(=O)[C@H](C)N)[C@@H](C)O)[C@@H](C)CC)[C@@H](C)CC)C(C)C)C(=O)N[C@@H](C)C(=O)N[C@@H](CCCN=C(N)N)C(=O)N[C@@H](CCCCN)C(=O)N[C@@H](C)C(=O)N[C@@H](Cc1c[nH]c2ccccc12)C(=O)O [AKTNRIAKELRRYIRKVGRIARKAW],MIC,[2],8 µM
same,MIC,[3],0.5 µM
same,MIC,Escherichia coli BL21,0.25 µM
CC[C@H](C)[C@H](NC(=O)[C@H](Cc1c[nH]c2ccccc12)NC(=O)[C@H](CCC(N)=O)NC(=O)[C@H](CCCN=C(N)N)NC(=O)CNC(=O)[C@H](C)N)C(=O)N[C@@H](C)C(=O)N[C@@H](CCCCN)C(=O)N[C@@H](Cc1ccc(O)cc1)C(=O)N[C@@H](CC(C)C)C(=O)N[C@@H](CCCN=C(N)N)C(=O)N[C@@H](CCCN=C(N)N)C(=O)N[C@@H](CCC(=O)O)C(=O)N[C@H](C(=O)N[C@@H](CCCN=C(N)N)C(=O)N[C@@H](CCCCN)C(=O)N[C@@H](CCCN=C(N)N)C(=O)NCC(=O)N[C@@H](CCCN=C(N)N)C(=O)N[C@@H](CCCCN)C(=O)N[C@@H](C)C(=O)N[C@H](C(=O)N[C@H](C(=O)N[C@@H](C)C(=O)N[C@@H](Cc1c[nH]c2ccccc12)C(=O)O)[C@@H](C)CC)C(C)C)[C@@H](C)CC [AGRQWIAKYLRREIRKRGRKAVIAW],MIC,[2],16 µM
same,MIC,[3],4 µM
same,MIC,[1],≥ 128 µM
same,MIC,Escherichia coli BL21,2 µM
CC[C@H](C)[C@H](N)C(=O)N[C@@H](CCCCN)C(=O)N[C@@H](CCCCN)C(=O)N[C@H](C(=O)N[C@H](C(=O)N[C@@H](CCCCN)C(=O)N[C@@H](CCCCN)C(=O)N[C@H](C(=O)N[C@H](C(=O)N[C@@H](CCCCN)C(=O)N[C@@H](CCCCN)C(=O)N[C@H](C(N)=O)[C@@H](C)CC)[C@@H](C)CC)[C@@H](C)CC)[C@@H](C)CC)[C@@H](C)CC [IKKIIKKIIKKI],MIC,[13],≥ 250 µM
same,MIC,Escherichia coli K-12,15.6 µM
same,MIC,[2],15.6 µM
same,MIC,Klebsiella pneumoniae,> 500 µM
